“Also recorded” adds a separate entry of the source. Non-standard residues stand in square brackets, D forms with d. Residues, ends and D or L forms follow the SMILES beside them. *: point of attachment. Phenylacetyl(2,3,4,5,6-F5) = O=C(Cc1c(F)c(F)c(F)c(F)c1F)*; Phe(F5) = N[C@@H](Cc1c(F)c(F)c(F)c(F)c1F)C(=O)O; Phe(4-Cl) = N[C@@H](Cc1ccc(Cl)cc1)C(=O)O; hArg = N=C(N)NCCCC[C@H](N)C(=O)O; 12Ado = NCCCCCCCCCCCC(=O)O; Nle = CCCC[C@H](N)C(=O)O; Abu = CC[C@H](N)C(=O)O
What was measured:
rat pituitary cells = assay: Inhibition of GHRH(1-29)NH2-stimulated GH release from rat pituitary cells (ELISA); assay type: cell-based; details: analog 20 nM
Protocol: In vitro assessment of the antagonistic activity of GHRH analogs. Rats were decapitated and pituitaries were collected in pre-warmed HBSS (Hanks' Balanced Salt Solution). Tissue was then cut into small pieces and digested in HBSS medium containing 3% BSA, 50 μg/ml gentamycin and 0.5% collagenase for 50 minutes at 37° C. Cells were further dispersed by pipetting and passed through a 100 μm cell strainer with the addition of DMEM containing 50 μg/ml gentamycin, 10% horse serum and 2.5% FBS (growth medium). Cells were harvested at 475×g for 2 minutes, resuspended in fresh growth medium and seeded onto poly-D-lysine-coated 24-well plates (7 pituitaries/plate). Cells were left to recover for 4 days. Growth medium was then replaced with serum-free DMEM for 4 hours and GHRH analogs (at concentration of 20 nM) were added in DMEM containing 0.1% BSA for 30 minutes. Cells were replenished with medium containing the same concentration of the analogs and 1 nM GHRH(1-29)NH2 for 30 minutes. Medium from this step was collected, centrifuged at 800 g for 3 minutes and GH concentration was determined by ELISA (ALPCO Diagnostics, Mill Valley, CA) according to the manufacturer's instruction.

HT-29 xenograft = assay: Xenograft tumor growth in nude mice, colon cancer HT-29; assay type: in vivo; details: Panel G, 6 weeks
Protocol: (§1) The peptides' activity was compared with GHRH antagonist MIA-602. All statistical analyzses were performed from comparing GHRA antagonists to non-treated tumor (control).
(§2) Peptides and chemicals. GHRH antagonists MIA-602 and AVR-GHRH antagonists (see Table 2 above) were synthesized by solid phase methods and purified by HPLC. The peptides were dissolved in DMSO and further diluted in 10% 1, 2-propanediol. The final concentration of peptides was 50 µg/ml in 10% 1, 2-propanediol containing 0.1% of DMSO.
(§3) Cell culture. Human cancer cell lines including pancreatic (PANC-1 and CFPAC-1), lung (HCC827 and H460), stomach (NCI-N87), prostate (PC3), brest (MX-1 and HCC-1806), colorectal (HT-29), and ovarian (SK-OV-3 and OVCAR-3) were obtained from the American Type Culture Collection (ATCC) and cultured at 37° C. in a humidified 95% air/5% CO2 atmosphere in the medium recommended by ATCC.
(§4) Xenograft models of human cancers in nude mice. Female athymic (NCr nu/nu) nude mice, 5-to 6-weeks-old, obtained from the Envigo labs (Tampa, FL), were housed in laminar airflow cabinets under pathogen-free conditions with a 12-h light/12-h dark schedule, and were fed autoclaved standard chow and water. To generate mice with xenografted tumors, tumor xenografts were initiated by subcutaneous (s.c.) injection of […] human cancer cells into female nude mice. After about 4 weeks the resulting tumors were dissected and collected after removing necrosis tissues. The tumors were then cut into particles with size of ˜3 mm3 and transplanted s.c. by trocar needle into experimental animals. When tumors grew to the size of 50-60 mm3 (by volume), mice were randomized into groups and treated daily for 4-8 weeks by subcutaneous administration of 5 μg of GHRH antagonists MIA-602 or AVR-compounds (2-10 μg as indicated), or vehicle solutions (0.1% DMSO in 10% 1, 2-propanediol) respectively. Tumor sizes were measured weekly.
(§5) Statistical analysis. One-way ANOVA followed by Bonferroni comparison were performed. Data are expressed as Mean±SEM. To determine statistical significance between animal groups, two-tailed Student's t-test was conducted. Differences were considered significant when p<0.05.
(§6) Results. […] FIG. 1A-N represents in vivo inhibition of tumor growth during the treatment with GHRH antagonist MIA-602 and selected AVR antagonists in nude mice xenografted with various human tumors including pancreatic cancer PANC-1 (FIG. 1A) and CFPAC-1 (FIG. 1I); lung cancer HCC827 (FIGS. 1B, C) and H460 (FIG. 1H); stomach cancer N87 (FIGS. 1D-F); colon cancer HT-29 (FIG. 1G); breast cancer MX-1 and HCC-1806 (FIGS. 1J, K); ovarian cancer SK-OV-3 and OVACAR-3 (FIGS. 1L, M) and prostate cancer PC3 (FIG. 1N). See also Table 5.

[1] = molecular target: T1, membrane GHRH-receptors on human anterior pituitary cells (Homo sapiens, UniProt Q02643); assay: Competitive receptor binding, displacement of 125I-[His1,Nle27]-hGH-RH(1-32)NH2 from human pituitary membranes
T1 construct: Human pituitary was purchased from the National Hormone and Peptide Program; tissue National Hormone and Peptide Program; host or cells: human pituitary membrane fractions
T1 sequence (Q02643 23-423): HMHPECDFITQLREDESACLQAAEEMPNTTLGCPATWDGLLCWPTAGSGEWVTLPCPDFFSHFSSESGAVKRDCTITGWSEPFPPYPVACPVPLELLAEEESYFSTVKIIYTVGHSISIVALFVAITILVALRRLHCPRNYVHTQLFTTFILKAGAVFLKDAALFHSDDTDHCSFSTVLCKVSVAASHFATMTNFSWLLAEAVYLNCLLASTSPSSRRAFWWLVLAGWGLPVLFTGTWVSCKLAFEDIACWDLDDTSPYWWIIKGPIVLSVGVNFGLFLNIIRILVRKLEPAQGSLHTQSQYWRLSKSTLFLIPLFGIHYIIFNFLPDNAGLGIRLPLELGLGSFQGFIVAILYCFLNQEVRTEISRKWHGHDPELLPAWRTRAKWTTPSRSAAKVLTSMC
Protocol: Receptor binding affinities in vitro. Preparation of human pituitary membrane fractions and receptor binding of analogs of GH-RH were performed (Halmos G, Rekasi Z, Szoke B, Schally A V. (1993) Receptor 3:87-97). Human pituitary was purchased from the National Hormone and Peptide Program. […] Relative affinities compared to hGH-RH(1-29)NH2 were calculated as the ratio of IC50 (dose causing 50% inhibition of specific binding to receptors) of the tested peptides to the IC50 of hGH-RH(1-29)NH2. The values were calculated from technical duplicate tubes.
Nineteen new AVR analogs of GHRH were tested in the receptor binding assay. Table 6 presents the IC50 values of GHRH antagonists to membrane GHRH-receptors binding on human anterior pituitary cells.

HCC827 xenograft = assay: Xenograft tumor growth in nude mice, lung cancer HCC827; assay type: in vivo; details: 5 μg/day s.c., vs control
Protocol: as §1, §2, §3, §4, §5, §6

OVCAR-3 xenograft = assay: Xenograft tumor growth in nude mice, ovarian cancer OVCAR-3; assay type: in vivo; details: Panel M, 9 weeks
Protocol: as §1, §2, §3, §4
(§7) Statistical analysis. One-way ANOVA followed by Bonferroni comparison were performed. Data are expressed as Mean±SEM. […]

PC3 xenograft = assay: Xenograft tumor growth in nude mice, prostate cancer PC3; assay type: in vivo; details: Panel N, 8 weeks, 5 μg/day s.c.
Protocol: as §1, §2, §3, §4, §7

NCI-N87 xenograft = assay: Xenograft tumor growth in nude mice, stomach cancer N87; assay type: in vivo; details: Panel F, 4 weeks, 5 μg/day s.c., vs control
Protocol: as §1, §2, §3
as §4, with “mice were randomized into groups and treated daily for 4-8 weeks by subcutaneous administration” left out
as §5, §6

SK-OV-3 xenograft = assay: Xenograft tumor growth in nude mice, ovarian cancer SK-OV-3; assay type: in vivo; details: Panel L, 7 weeks
Protocol: as §1, §2, §3, §4, §5, §6

Row | SMILES | Inhibitory effect on the release of GH compared with MIA-602 (rat pituitary cells) | Tumor Growth % (HT-29 xenograft; 2 μg/day s.c.) [%] | Tumor Growth % (HT-29 xenograft; 5 μg/day s.c.) [%] | Binding affinity to membrane receptors of human pituitary cells [1] | % Inhibition (HCC827 xenograft; Panel B, 7 weeks) [%] | % Inhibition (HCC827 xenograft; Panel C, 8 weeks) [%] | Tumor Growth % (OVCAR-3 xenograft; 2.5 μg/day s.c.) [%] | Tumor Growth % (OVCAR-3 xenograft; 5 μg/day s.c.) [%] | Tumor Growth % (PC3 xenograft) [%] | % Inhibition (NCI-N87 xenograft) [%] | Tumor Growth % (SK-OV-3 xenograft; 2.5 μg/day s.c.) [%] | Tumor Growth % (SK-OV-3 xenograft; 5 μg/day s.c.) [%] | IC50 ([1]; human anterior pituitary membranes, mean of two to three determinations, read-out: IC50) [nM]
1 | CCCC[C@H](NC(=O)[C@@H](NC(=O)[C@H](CC(=O)O)NC(=O)[C@H](CCC(N)=O)NC(=O)[C@H](CC(C)C)NC(=O)[C@H](CC(C)C)NC(=O)[C@H](CCCCN)NC(=O)[C@H](CCCNC(=N)N)NC(=O)[C@H](C)NC(=O)[C@H](CO)NC(=O)[C@H](CC(C)C)NC(=O)[C@H](CCC(N)=O)NC(=O)[C@H](CC)NC(=O)[C@H](CC(C)C)NC(=O)[C@@H](NC(=O)[C@H](CCCCN)NC(=O)[C@H](CCCNC(=N)N)NC(=O)[C@H](Cc1c(F)c(F)c(F)c(F)c1F)NC(=O)[C@H](CCCCNC(=N)N)NC(=O)[C@H](C)NC(=O)[C@@H](NC(=O)[C@H](Cc1ccc(Cl)cc1)NC(=O)[C@@H](NC(=O)[C@H](C)NC(=O)[C@H](CC(=O)O)NC(=O)[C@@H](CCCNC(=N)N)NC(=O)[C@H](Cc1ccc(O)cc1)NC(=O)CCCCCCCCCCCNC(=O)Cc1c(F)c(F)c(F)c(F)c1F)[C@@H](C)CC)[C@@H](C)O)C(C)C)[C@@H](C)CC)C(=O)N[C@H](CCCNC(=N)N)C(=O)N[C@@H](CCCCNC(=N)N)C(=O)NCCCCCCCCCCCC(N)=O [AVR-353, 5FPhAC-Ada-Tyr-DArg-Asp-Ala-Ile-Cpa-Thr-Ala-Har-5FPhe-Arg-Lys-Val-Leu-Abu-Gln-Leu-Ser-Ala-Arg-Lys-Leu-Leu-Gln-Asp-Ile-Nle-DArg-Har-Ada-NH2] ({Phenylacetyl(2,3,4,5,6-F5)-12Ado}-Y[dR]DAI[Phe(4-Cl)]TA[hArg][Phe(F5)]RKVL[Abu]QLSARKLLQDI[Nle][dR][hArg][12Ado]-NH2) | higher inhibitory effects than MIA-602 | 549.30 | 494.70 | higher binding affinity in comparison to MIA-602; also recorded: highest binding affinities | 71.0 | 50.0 | 357.0 | 255.2 | 496.7 | 65.0 | 1056.0 | 910.7 | 
2 | CCCC[C@H](NC(=O)[C@@H](NC(=O)[C@H](CC(=O)O)NC(=O)[C@H](CCC(N)=O)NC(=O)[C@H](CC(C)C)NC(=O)[C@H](CC(C)C)NC(=O)[C@H](CCCCN)NC(=O)[C@H](CCCNC(=N)N)NC(=O)[C@H](C)NC(=O)[C@H](CO)NC(=O)[C@H](CC(C)C)NC(=O)[C@H](CCC(N)=O)NC(=O)[C@H](CC)NC(=O)[C@H](CC(C)C)NC(=O)[C@@H](NC(=O)[C@H](CCCCN)NC(=O)[C@H](CCCNC(=N)N)NC(=O)[C@H](Cc1c(F)c(F)c(F)c(F)c1F)NC(=O)[C@H](CCCCNC(=N)N)NC(=O)[C@H](C)NC(=O)[C@@H](NC(=O)[C@H](Cc1ccc(Cl)cc1)NC(=O)[C@@H](NC(=O)[C@H](C)NC(=O)[C@H](CC(=O)O)NC(=O)[C@@H](CCCNC(=N)N)NC(=O)[C@H](Cc1ccc(O)cc1)NC(=O)CCCCCCCCCCCNC(=O)Cc1c(F)c(F)c(F)c(F)c1F)[C@@H](C)CC)[C@@H](C)O)C(C)C)[C@@H](C)CC)C(=O)N[C@H](CCCNC(=N)N)C(=O)N[C@@H](CCCCNC(=N)N)C(=O)NCCCCCCCCCCCC(=O)NC [AVR-354] ({Phenylacetyl(2,3,4,5,6-F5)-12Ado}-Y[dR]DAI[Phe(4-Cl)]TA[hArg][Phe(F5)]RKVL[Abu]QLSARKLLQDI[Nle][dR][hArg][12Ado]-NHMe) |  |  | 417.90 | higher binding affinity in comparison to MIA-602; also recorded: highest binding affinities |  |  |  |  | 343.6 |  |  |  | 0.14

From US11993640B2, “Treating inflammatory lung disease” (United States Government as represented by the Department …, priority 2019, dated 2024)
